Measurements from US9040459B2, “Herbicidal compositions comprising aminopyralid and propanil” (Dow AgroSciences, LLC., priority 2012, dated 2015).

How the values were obtained:
Assay in all cases: Postemergence herbicidal activity under field conditions, visual weed control
Type in all cases: in vivo
Conditions in all cases: post-emergence field trial
[1] = test system: Eleusine indica L. Gaertn. (goosegrass, ELEIN)
Protocol: (§1) These trials were conducted under field conditions in Espinal, Colombia. Trial sites were located in commercially grown fields of common rice (Oryza sativa). The rice crop was grown using normal cultural practices for fertilization, seeding, and maintenance to ensure good growth of the crop and the weeds. The trials were conducted using normal research methodology. Trial plots were 2 meters (m) wide by 5 m long. All treatments were applied using a randomized complete block trial design with 4 replications per treatment. The trial sites had naturally occurring populations of weeds. The weed spectrum included, but was not limited to, Cyperus iria L. (rice flatsedge, CYPIR), Digitaria horizontalis (Jamaican crabgrass, DIGHO), Eleusine indica L. Gaertn. (goosegrass, ELEIN), Portulaca oleracea L. (common purslane, POROL) and Phyllanthus niruri L. (gripeweed, PYLNI). The plots were treated with a postemergence foliar application 15 to 20 days after emergence of the rice.
(§2) Treatments consisted of tank mixes of aminopyralid triisopropanolammonium salt (MILESTONE 240SL) and a commercially available formulation of propanil herbicide (STAM 480EC). The application volume was 200 liters per hectare (L/ha) of water. All applications were made using precision gas hand sprayers with a 3 m boom using flat fan 8002 nozzles to broadcast the treatments over the top of the rice and weeds.
(§3) The treated plots and control plots were rated blind at various intervals after application. Ratings were based on Percent (%) Visual weed control, where 0 corresponds to no injury and 100 corresponds to complete kill.
(§4) Colby's equation was used to determine the herbicidal effects expected from the mixtures (Colby, S. R. Calculation of the synergistic and antagonistic response of herbicide combinations. Weeds 1967 15, 20-22).
(§5) The following equation was used to calculate the expected activity of mixtures containing two active ingredients, A and B: Expected=A+B−(A×B/100)
(§6) A=observed efficacy of active ingredient A at the same concentration as used in the mixture;
(§7) B=observed efficacy of active ingredient B at the same concentration as used in the mixture.

[2] = test system: Cyperus iria L. (rice flatsedge, CYPIR)
Protocol: as §1, §2, §3, §4, §5, §6, §7

[3] = test system: Phyllanthus niruri L. (gripeweed, PYLNI)
Protocol: as §1, §2, §3, §4, §5, §6, §7

[4] = test system: Digitaria horizontalis (Jamaican crabgrass, DIGHO)
Protocol: as §1, §2, §3, §4, §5, §6, §7

[5] = test system: Portulaca oleracea L. (common purslane, POROL)
Protocol: as §1, §2, §3, §4, §5, §6, §7

Compound: Nc1cc(Cl)nc(C(=O)O)c1Cl [Aminopyralid, 4-amino-3,6-dichloro-2-pyridinecarboxylic acid]
- Visual Weed Control (%) ELEIN 8 DAA Obs ([1]; aminopyralid 4 g ae/ha alone): 0%
- Visual Weed Control (%) ELEIN 8 DAA Obs ([1]; aminopyralid 8 g ae/ha alone): 0%
- Visual Weed Control (%) ELEIN 8 DAA Obs ([1]; aminopyralid 16 g ae/ha alone): 0%
- Visual Weed Control (%) CYPIR 15 DAA Obs ([2]; aminopyralid 4 g ae/ha alone): 4.5%
- Visual Weed Control (%) CYPIR 32 DAA Obs ([2]; aminopyralid 4 g ae/ha alone): 0%
- Visual Weed Control (%) CYPIR 32 DAA Obs ([2]; aminopyralid 8 g ae/ha alone): 10%
- Visual Weed Control (%) CYPIR 15 DAA Obs ([2]; aminopyralid 16 g ae/ha alone): 15%
- Visual Weed Control (%) CYPIR 32 DAA Obs ([2]; aminopyralid 16 g ae/ha alone): 10%
- Visual Weed Control (%) PYLNI 8 DAA Obs ([3]; aminopyralid 4 g ae/ha alone): 0%
- Visual Weed Control (%) PYLNI 8 DAA Obs ([3]; aminopyralid 8 g ae/ha alone): 3%
- Visual Weed Control (%) PYLNI 8 DAA Obs ([3]; aminopyralid 16 g ae/ha alone): 3%
- Visual Weed Control (%) DIGHO 8 DAA Obs ([4]; aminopyralid 8 g ae/ha alone): 0%
- Visual Weed Control (%) DIGHO 8 DAA Obs ([4]; aminopyralid 16 g ae/ha alone): 0%
- Visual Weed Control (%) POROL 8 DAA Obs ([5]; aminopyralid 4 g ae/ha alone): 36%
- Visual Weed Control (%) POROL 8 DAA Obs ([5]; aminopyralid 8 g ae/ha alone): 68%
- Visual Weed Control (%) POROL 8 DAA Obs ([5]; aminopyralid 16 g ae/ha alone): 93%

Compound: CCC(=O)Nc1ccc(Cl)c(Cl)c1 [Propanil, N-(3,4-dichloro-phenyl)propanamide]
- Visual Weed Control (%) ELEIN 8 DAA Obs ([1]; propanil 480 g ai/ha alone): 48%
- Visual Weed Control (%) CYPIR 15 DAA Obs ([2]; propanil 480 g ai/ha alone): 35%
- Visual Weed Control (%) CYPIR 32 DAA Obs ([2]; propanil 480 g ai/ha alone): 20%
- Visual Weed Control (%) CYPIR 32 DAA Obs ([2]; propanil 960 g ai/ha alone): 58%
- Visual Weed Control (%) PYLNI 8 DAA Obs ([3]; propanil 480 g ai/ha alone): 45%
- Visual Weed Control (%) DIGHO 8 DAA Obs ([4]; propanil 480 g ai/ha alone): 51%
- Visual Weed Control (%) POROL 8 DAA Obs ([5]; propanil 480 g ai/ha alone): 49%
